Test results as given in PubChem BioAssay (NCI).
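Tested at 5 concentrations; 48 h exposure; 96-well plates; endpoints linearly interpolated, else capped at highest concentration. Here, GI50 denotes the concentration required for 50% inhibition of growth. TGI is the concentration that stops growth completely.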

What was measured:
Assay in all cases: NCI tumour cell line growth inhibition, 48 h
OVCAR-3 ovarian = test system: OVCAR-3 ovarian
HCC-2998 colon = test system: HCC-2998 colon
SK-MEL-28 melanoma = test system: SK-MEL-28 melanoma
HCT-116 colon = test system: HCT-116 colon
CCRF-CEM leukemia = test system: CCRF-CEM leukemia
RPMI-8226 leukemia = test system: RPMI-8226 leukemia
NCI-H23 lung = test system: NCI-H23 lung
UACC-257 melanoma = test system: UACC-257 melanoma
COLO 205 colon = test system: COLO 205 colon
LOX IMVI melanoma = test system: LOX IMVI melanoma
HT29 colon = test system: HT29 colon

| Compound | TGI (OVCAR-3 ovarian) [µM] | TGI (HCC-2998 colon) [µM] | TGI (SK-MEL-28 melanoma) [µM] | TGI (HCT-116 colon) [µM] | TGI (CCRF-CEM leukemia) [µM] | TGI (RPMI-8226 leukemia) [µM] | TGI (NCI-H23 lung) [µM] | TGI (UACC-257 melanoma) [µM] | TGI (COLO 205 colon) [µM] | TGI (LOX IMVI melanoma) [µM] | TGI (HT29 colon) [µM] | GI50 (OVCAR-3 ovarian) [µM] | GI50 (HCC-2998 colon) [µM] | GI50 (SK-MEL-28 melanoma) [µM] | GI50 (CCRF-CEM leukemia) [µM] | GI50 (RPMI-8226 leukemia) [µM] | GI50 (NCI-H23 lung) [µM] | GI50 (UACC-257 melanoma) [µM] | GI50 (COLO 205 colon) [µM] | GI50 (HT29 colon) [µM] |
| --- | --- | --- | --- | --- | --- | --- | --- | --- | --- | --- | --- | --- | --- | --- | --- | --- | --- | --- | --- | --- |
| CC(c1ccccc1)/[N+]([O-])=C/c1ccccc1 (configuration not stated) | > 100 | > 100 | > 100 | > 100 | > 100 | > 100 | > 100 | > 100 | > 100 | > 100 | > 100 |  |  |  |  |  |  |  |  |  |
| C[C@]12CCc3sc(Nc4ccc(O)cc4)nc3C1=CC[C@@H]1[C@@H]2CC[C@]2(C)C(=O)CC[C@@H]12 | 3.38 | > 100 | 4.75 |  | > 100 | 7.07 | > 100 | 4.62 | 3.9 |  | 5.59 | 1.71 | 4.11 | 2.08 | 2.47 | 2.35 | 3.96 | 1.86 | 2 | 2.13 |
| NC(=S)N/N=C1\c2ccccc2CCC1CCC1(O)CCc2ccccc2C1=O (configuration not stated) | 36.3 |  | 45.8 | 40.2 | 86 | 70.4 | 87 | 33.3 | 36.7 | 44.3 | 45.9 |  |  |  |  |  |  |  |  |  |
| CCOP(=O)(CN=C(c1ccccc1)c1ccccc1)OCC | > 100 | > 100 | > 100 | > 100 | > 100 | > 100 | > 100 | > 100 | > 100 | > 100 | > 100 |  |  |  |  |  |  |  |  |  |
| Cc1ccc(Nc2nc(NS(=O)(=O)c3cc(C(=O)Nc4ccc(Cl)cc4)c(Cl)cc3S)n[nH]2)cc1 | > 100 |  | > 100 | > 100 | > 100 | > 100 | > 100 | > 100 | > 100 | > 100 | > 100 |  |  |  |  |  |  |  |  |  |
| CCc1nnc(-c2nsc3ccccc23)s1 | > 100 | > 100 | > 100 | > 100 | > 100 | > 100 | > 100 | > 100 | > 100 | > 100 | > 100 |  |  |  |  |  |  |  |  |  |
| O=C(O)CC1(CC(=O)O)Nc2ccccc2SC1=O | > 100 | > 100 | > 100 | > 100 | > 100 | > 100 | > 100 | > 100 | > 100 | > 100 | > 100 |  |  |  |  |  |  |  |  |  |
| O=C(O)CC1OCC=C2CN3CCC45C6=CC(=O)C(=O)C([N+](=O)[O-])=C6NC4C1C2CC35 (configuration not stated) | > 100 | > 100 | > 100 | > 100 | 61.8 | > 100 | > 100 | > 100 | > 100 | > 100 | > 100 |  |  |  |  |  |  |  |  |  |
| CC(CCC(=O)O)C1CCC2C3C(O)CC4CC(O)CCC4(C)C3CC(O)C12C (configuration not stated) | > 100 | > 100 | > 100 | > 100 | > 100 | > 100 | > 100 | > 100 | > 100 | > 100 | > 100 |  |  |  |  |  |  |  |  |  |
| COC1=CC(=O)c2c(O)c3c(c(O)c2C1=O)C=C(C)OC3O (configuration not stated) | 6.33 | 3.74 | 3.65 | 2.3 | 16.1 | 5.83 | 2.25 | 0.754 | 0.746 | 1.9 | 2.7 |  |  |  |  |  |  |  |  |  |
| CN1CCN(c2cc(-c3cc4ccccc4o3)oc(=O)c2C#N)CC1 |  | > 100 | > 100 | > 100 | > 100 | > 100 | > 100 | > 100 | > 100 | > 100 | > 100 |  |  |  |  |  |  |  |  |  |
| COc1ccc(-c2c3c(nc4nc(SC)nc(SC)c24)CCCC3)cc1OC | > 100 | > 100 | > 100 | > 100 | 90.2 | > 100 | > 100 | > 100 | > 100 | > 100 | > 100 |  |  |  |  |  |  |  |  |  |
| CC1OC1C(=O)C1(O)C(C)C(O)C23OC2(C(O)c2c(O)cccc2C3=O)C1O (configuration not stated) | 0.352 | 0.401 | 0.682 | 0.703 |  | 0.73 | 0.543 | 0.714 | 0.223 | 0.629 | 0.629 |  |  |  |  |  |  |  |  |  |
| C/C(=N\NC(=S)Nc1ccc(C)cc1)c1nc2ncccc2[nH]1 | 9.71 | 20.2 | 18.4 | 14.3 | 11.5 | > 100 | 19.8 | 9.48 | 17.6 | 8.29 | 14.5 |  |  |  |  |  |  |  |  |  |
